Read-outs that look alike come from different tables or passages of the source.
What was measured:
[1] = system: Resistant Chlamydomonas reinhardtii; conditions: cited from earlier work; for Highest tolerated concentration: highest concentration an isolated resistant strain can tolerate; for IC50: Vartak and Sujata 1997/1999, read-out: I50
[2] = system: Wildtype Chlamydomonas reinhardtii; conditions: cited from earlier work; for Complete Growth inhibition: concentration at which growth is inhibited; for IC50: Vartak and Sujata 1997/1999, read-out: I50
[3] = system: Resistant Chlamydomonas reinhardtii; test: Highest herbicide concentration an isolated resistant strain can tolerate (chart); type: cell-based; conditions: unpublished results
Excerpt: (§1) Provided below is an exemplary chart of herbicide concentrations that can be used in the embodiments disclosed herein. The concentrations provided are the concentration that growth of the wild type algae is inhibited at, and the highest concentrations that an isolated resistant strain of Chlamydomonas reinhardtii can tolerate. One of skill in the art would be able to determine the proper concentration of the herbicides listed in the chart without undue experimentation.

[4] = system: Wildtype Chlamydomonas reinhardtii; test: Herbicide concentration at which growth of wild type algae is inhibited (chart); type: cell-based; conditions: unpublished results
Excerpt: as §1

[5] = system: psbD-EPSPS (G163A/A252T) engineered C. reinhardtii strain; test: Growth on HSM plates with increasing amounts of glyphosate; type: cell-based, Chlamydomonas reinhardtii; conditions: 0-2 mM glyphosate, chloroplast psbD-EPSPS (G163A/A252T) strain
Method: (§2) To characterize the effect of expressing the double mutated C. reinhardtii EPSPS directly in the chloroplast, engineered strains, along with wild type C. reinhardtii cc 1690 (mt+), were plated on HSM plates with increasing amounts of glyphosate (0-2 mM). Wild type C. reinhardtii cc1690 was sensitive to approximately 1 mM glyphosate whereas the psbD-EPSPS (G163A/A252T) and atpA-EPSPS (G163A/A252T) engineered strains were sensitive at approximately 1.8 and 1.6 mM glyphosate, respectively.

[6] = system: atpA-EPSPS (G163A/A252T) engineered C. reinhardtii strain; test: as above; type: cell-based, Chlamydomonas reinhardtii; conditions: 0-2 mM glyphosate, chloroplast atpA-EPSPS (G163A/A252T) strain
Method: as §2

[7] = system: wild type C. reinhardtii cc1690 (mt+); test: as above; type: cell-based, Chlamydomonas reinhardtii; conditions: 0-2 mM glyphosate
Method: as §2

In the case of `COc1nc(C)nc(NC(=O)NS(=O)(=O)c2ccccc2Cl)n1` [Chlorsulfuron], the Highest tolerated concentration ([1]; Winder and Spalding 1988) is listed as 1000 µM and the “Complete Growth inhibition” value ([2]; Winder and Spalding 1988) is listed as 100 µM.

In the case of `CCNc1nc(Cl)nc(NC(C)C)n1` [Atrazine], the Highest tolerated concentration ([1]; Galloway and Mets 1984) is given as 100 µM and the “Complete Growth inhibition” value ([2]; Galloway and Mets 1984) is given as 5 µM.

For `O=C(O)CNCP(=O)(O)O` [Glyphosate], the “Complete Growth inhibition” value [3] was 5 mM, the “Complete Growth inhibition” value [4] was 1 mM and the “glyphosate concentration the strain was sensitive to” value [5] was “approximately 1.8 mM”. For the same compound, the “glyphosate concentration the strain was sensitive to” value [6] was ~1.6 mM and the “glyphosate concentration the strain was sensitive to” value [7] was “approximately 1 mM”.

In the case of `C[n+]1ccc(-c2cc[n+](C)cc2)cc1` [Paraquat], the IC50 [1] is given as 54000 nM and the IC50 [2] is given as 700 nM.

In the case of `CC(C)C1(C)N=C(c2nc3ccccc3cc2C(=O)O)NC1=O` (stereo not shown) [Imazaquin], the Highest tolerated concentration ([1]; Winder and Spalding 1988) is given as 10000 µM and the “Complete Growth inhibition” value ([2]; Winder and Spalding 1988) is given as 1000 µM.

For `CNc1cnn(-c2cccc(C(F)(F)F)c2)c(=O)c1Cl` [Norflurazon], the IC50 [1] is given as 3600 nM and the IC50 [2] is given as 1100 nM.

In the case of `CCC(C)n1c(=O)[nH]c(C)c(Br)c1=O` (stereo not shown) [Bromacil], the Highest tolerated concentration ([1]; Galloway and Mets 1984) is given as 50 µM and the “Complete Growth inhibition” value ([2]; Galloway and Mets 1984) is given as 2 µM.

In the case of `CN(C)C(=O)Nc1ccc(Cl)c(Cl)c1` [DCMU, 3-(3,4-dichlorophenyl)-1,1-dimethylurea], the Highest tolerated concentration ([1]; Galloway and Mets 1984) is given as 200 µM and the “Complete Growth inhibition” value ([2]; Galloway and Mets 1984) is given as 2 µM.

— US20120322102A1, “GENETICALLY ENGINEERED HERBICIDE RESISTANT ALGAE” (SAPPHIRE ENERGY, INC., priority 2008, published 2012)
